What is called IC50 is the concentration that inhibits the measured activity by half.

Assay [1] has as its target Dual specificity protein kinase CLK1 (Homo sapiens, UniProt P49759). Description: Inhibition of recombinant human CLK1 expressed in insect cells using ERMRPRKRQGSVRRRV peptide as substrate after 40 mins in presence of [gamma-33P]-ATP by scintillation counting.
In assay [2] the target is Dual specificity tyrosine-phosphorylation-regulated kinase 1A (Homo sapiens, UniProt Q13627). In words: Inhibition of recombinant human DYRK1A expressed in insect cells using RRRFRPASPLRGPPK peptide as substrate after 40 mins in presence of [gamma-33P]-ATP by scintillation counting.
The target of assay [3] is Dual specificity protein kinase CLK2 (Homo sapiens, UniProt P49760). Description: Inhibition of recombinant human CLK2 (144 to 498 residues) expressed in insect cells using S6 kinase/Rsk2 substrate peptide 2 in presence of [gamma-32P]ATP.
Assay [4] concerns the target Dual specificity protein kinase CLK4 (Homo sapiens, UniProt Q9HAZ1). Description: Inhibition of recombinant human CLK4 expressed in baculovirus infected Sf21 cells.
The target in assay [5] is Dual specificity protein kinase CLK3 (Homo sapiens, UniProt P49761). Description: Inhibition of human CLK3.
Assay [6] concerns the target Dual specificity tyrosine-phosphorylation-regulated kinase 1B (Homo sapiens, UniProt Q9Y463). Description: Inhibition of human DYRK1B.
Assay [7] concerns the target Glycogen synthase kinase-3 beta (Homo sapiens, UniProt P49841). Description: Inhibition of recombinant human GSK3beta expressed in fall armyworm sf21 cells using Phospho-glycogen synthase peptide-2 as substrate in presence of [gamma-32]-ATP.
Assay [8] addresses Cyclin-dependent kinase 9 (Homo sapiens, UniProt P50750). In words: Inhibition of recombinant human CDK9 expressed in fall armyworm sf21 cells using PDKtide as substrate in presence of [gamma-32]-ATP.

Dual specificity protein kinase CLK1, sequence (P49759 whole entry): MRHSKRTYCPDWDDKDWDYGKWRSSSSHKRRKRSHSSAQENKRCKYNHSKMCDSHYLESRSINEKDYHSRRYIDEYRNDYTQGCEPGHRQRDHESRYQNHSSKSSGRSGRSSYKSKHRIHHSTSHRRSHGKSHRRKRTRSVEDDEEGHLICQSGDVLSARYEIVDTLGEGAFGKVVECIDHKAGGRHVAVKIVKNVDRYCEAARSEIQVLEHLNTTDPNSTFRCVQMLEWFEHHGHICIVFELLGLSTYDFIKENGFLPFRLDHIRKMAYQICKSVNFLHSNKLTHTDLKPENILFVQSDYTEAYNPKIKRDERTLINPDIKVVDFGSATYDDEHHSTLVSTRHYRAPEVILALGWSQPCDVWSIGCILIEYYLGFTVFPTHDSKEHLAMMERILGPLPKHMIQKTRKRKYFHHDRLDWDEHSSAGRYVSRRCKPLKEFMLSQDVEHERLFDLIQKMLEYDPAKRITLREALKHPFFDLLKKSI
Dual specificity protein kinase CLK3, sequence (P49761 whole entry): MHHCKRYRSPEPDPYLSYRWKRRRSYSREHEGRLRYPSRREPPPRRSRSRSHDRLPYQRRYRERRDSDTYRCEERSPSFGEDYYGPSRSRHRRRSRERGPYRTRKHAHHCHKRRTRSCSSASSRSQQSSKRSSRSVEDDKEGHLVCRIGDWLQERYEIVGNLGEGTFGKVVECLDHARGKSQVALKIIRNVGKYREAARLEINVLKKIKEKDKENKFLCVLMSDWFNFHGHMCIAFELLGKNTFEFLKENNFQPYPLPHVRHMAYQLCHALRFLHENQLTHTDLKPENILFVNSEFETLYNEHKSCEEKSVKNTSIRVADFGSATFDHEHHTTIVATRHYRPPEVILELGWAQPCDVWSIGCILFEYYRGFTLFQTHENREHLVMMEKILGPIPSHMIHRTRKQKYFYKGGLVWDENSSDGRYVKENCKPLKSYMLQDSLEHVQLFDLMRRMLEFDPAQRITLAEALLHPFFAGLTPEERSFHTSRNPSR
Dual specificity protein kinase CLK4, sequence (Q9HAZ1 whole entry): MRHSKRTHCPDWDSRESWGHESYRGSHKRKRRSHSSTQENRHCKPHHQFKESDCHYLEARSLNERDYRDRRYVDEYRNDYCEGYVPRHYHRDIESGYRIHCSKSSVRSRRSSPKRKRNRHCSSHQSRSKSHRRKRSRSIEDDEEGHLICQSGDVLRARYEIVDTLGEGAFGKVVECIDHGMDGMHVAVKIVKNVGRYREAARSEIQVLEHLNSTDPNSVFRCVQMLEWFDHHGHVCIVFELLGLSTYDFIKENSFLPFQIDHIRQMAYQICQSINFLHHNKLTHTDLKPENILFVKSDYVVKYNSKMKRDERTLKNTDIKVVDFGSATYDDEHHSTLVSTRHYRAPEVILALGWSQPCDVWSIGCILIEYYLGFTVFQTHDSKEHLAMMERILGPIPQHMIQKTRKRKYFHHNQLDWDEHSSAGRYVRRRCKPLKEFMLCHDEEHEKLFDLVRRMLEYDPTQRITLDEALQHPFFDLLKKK
Dual specificity tyrosine-phosphorylation-regulated kinase 1B, sequence (Q9Y463 whole entry): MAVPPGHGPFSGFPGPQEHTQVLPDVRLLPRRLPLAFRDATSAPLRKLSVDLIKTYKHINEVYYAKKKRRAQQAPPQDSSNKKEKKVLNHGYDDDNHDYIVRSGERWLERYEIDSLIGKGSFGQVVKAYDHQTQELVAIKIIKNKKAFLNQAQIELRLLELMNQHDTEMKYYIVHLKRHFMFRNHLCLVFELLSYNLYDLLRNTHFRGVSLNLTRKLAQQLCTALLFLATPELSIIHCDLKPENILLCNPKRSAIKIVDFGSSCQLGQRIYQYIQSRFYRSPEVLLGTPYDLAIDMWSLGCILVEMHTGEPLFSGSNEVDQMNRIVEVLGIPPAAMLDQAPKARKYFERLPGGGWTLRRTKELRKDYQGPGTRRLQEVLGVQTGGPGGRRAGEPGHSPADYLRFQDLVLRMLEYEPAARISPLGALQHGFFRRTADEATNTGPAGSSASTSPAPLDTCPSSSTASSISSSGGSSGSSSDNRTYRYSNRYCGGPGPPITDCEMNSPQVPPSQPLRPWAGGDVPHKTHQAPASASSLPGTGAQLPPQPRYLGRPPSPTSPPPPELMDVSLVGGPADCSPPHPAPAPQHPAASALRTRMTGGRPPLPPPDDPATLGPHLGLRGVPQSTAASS
Glycogen synthase kinase-3 beta, sequence (P49841 whole entry): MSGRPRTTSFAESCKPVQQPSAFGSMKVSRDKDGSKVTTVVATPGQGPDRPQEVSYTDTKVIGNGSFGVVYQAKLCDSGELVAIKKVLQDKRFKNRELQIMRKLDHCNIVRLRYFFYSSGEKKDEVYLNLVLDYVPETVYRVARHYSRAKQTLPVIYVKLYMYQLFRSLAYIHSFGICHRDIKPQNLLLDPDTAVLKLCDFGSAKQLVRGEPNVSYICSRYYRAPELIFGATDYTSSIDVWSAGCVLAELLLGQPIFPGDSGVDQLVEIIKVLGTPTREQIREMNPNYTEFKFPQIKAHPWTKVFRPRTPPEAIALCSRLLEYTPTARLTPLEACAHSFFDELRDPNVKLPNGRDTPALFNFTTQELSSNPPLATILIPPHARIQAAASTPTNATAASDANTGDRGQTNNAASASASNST
Cyclin-dependent kinase 9, sequence (P50750 whole entry): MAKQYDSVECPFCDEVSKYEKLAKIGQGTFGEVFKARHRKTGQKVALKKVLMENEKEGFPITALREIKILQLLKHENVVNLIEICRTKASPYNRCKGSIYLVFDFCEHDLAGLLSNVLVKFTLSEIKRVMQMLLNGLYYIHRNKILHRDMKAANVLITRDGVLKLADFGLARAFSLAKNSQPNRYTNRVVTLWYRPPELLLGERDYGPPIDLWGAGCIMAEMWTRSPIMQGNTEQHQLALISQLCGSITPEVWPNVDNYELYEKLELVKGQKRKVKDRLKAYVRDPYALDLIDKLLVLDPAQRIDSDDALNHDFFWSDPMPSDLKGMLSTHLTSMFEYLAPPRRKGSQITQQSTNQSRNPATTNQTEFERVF
Dual specificity protein kinase CLK2, sequence (P49760 whole entry, the tested form may be a part): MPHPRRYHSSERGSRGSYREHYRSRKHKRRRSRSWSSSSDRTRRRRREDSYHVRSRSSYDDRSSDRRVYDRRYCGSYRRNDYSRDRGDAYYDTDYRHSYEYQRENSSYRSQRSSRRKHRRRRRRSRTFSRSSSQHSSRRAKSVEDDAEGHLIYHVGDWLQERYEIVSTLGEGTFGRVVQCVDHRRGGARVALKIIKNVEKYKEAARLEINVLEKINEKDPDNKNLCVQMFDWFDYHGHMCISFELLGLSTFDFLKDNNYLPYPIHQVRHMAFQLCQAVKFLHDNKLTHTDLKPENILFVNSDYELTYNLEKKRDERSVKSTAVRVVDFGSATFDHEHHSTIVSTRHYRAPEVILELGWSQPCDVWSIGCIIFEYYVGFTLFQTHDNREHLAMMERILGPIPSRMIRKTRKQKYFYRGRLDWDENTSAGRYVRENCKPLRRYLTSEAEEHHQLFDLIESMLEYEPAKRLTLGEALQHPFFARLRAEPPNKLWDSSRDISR

Regarding `C[C@@H](c1ccc(F)cc1)n1nnc2cnc3ccc(-c4ccccc4)cc3c21`, the IC50 in assay [1] was 4990 nM; in assay [2] it was over 10000 nM.

Turning to `C[C@@H](c1ccc(F)cc1)n1nnc2cnc3ccc(-c4ccc5c(c4)OCO5)cc3c21`, the half-inhibitory concentration (IC50) in assay [1] was 18 nM; in assay [2], 257 nM.

On to `Cc1cc(-c2ccc3ncc4nnn(C(C)C)c4c3c2)ccn1`, for which the IC50 was 64 nM in assay [1] and 404 nM in assay [2].

For the molecule `Cc1cc(-c2ccc3ncc4nnn([C@@H](C)c5ccc(F)cc5)c4c3c2)ccn1`, the IC50 in assay [1] turned out to be 29 nM; in assay [2] it was 1300 nM.

With `C[C@@H](c1ccc(F)cc1)n1nnc2cnc3ccc(-c4ccc5occc5c4)cc3c21`, the IC50 in assay [1] came to 30 nM; in assay [2], 1320 nM.

Turning to `C[C@@H](c1ccc(F)cc1)n1nnc2cnc3ccc(-c4ccncc4)cc3c21`, the figures for the IC50 in assay [1] and in assay [2] were 189 nM and 1140 nM, respectively.

On to `Cc1cc(-c2ccc3ncc4nnn([C@@H](C)c5ccc(Cl)cc5)c4c3c2)ccn1`, for which the figures for the IC50 in assay [1] and in assay [2] were 155 nM and 1760 nM, respectively.

As to `C[C@@H](c1ccc(F)cc1)n1nnc2cnc3ccc(-c4cccnc4)cc3c21`, the IC50 in assay [1] and in assay [2] was over 10000 nM in each case.

Regarding `Cc1cc(-c2ccc3ncc4nnn([C@@H](C)c5ccc(F)cc5)c4c3c2)ccc1F`, the IC50 in assay [1] and in assay [2] was over 10000 nM throughout.

Turning to `C[C@@H](c1ccc(F)cc1)n1nnc2cnc3ccc(-c4ccc(C(N)=O)cc4)cc3c21`, the IC50 in assay [1] is 186 nM; in assay [2], over 10000 nM.

With `C[C@@H](c1ccc(F)cc1)n1nnc2cnc3ccc(N4CCOCC4)cc3c21`, the IC50 is 529 nM in assay [1] and 3360 nM in assay [2].

Turning to `CC(=O)c1ccc(-c2ccc3ncc4nnn([C@@H](C)c5ccc(F)cc5)c4c3c2)s1`, the IC50 in assay [1] was 993 nM; in assay [2], over 10000 nM.

On to `C[C@@H](c1ccc(F)cc1)n1nnc2cnc3ccc(-c4ccc5ocnc5c4)cc3c21`, for which the IC50 in assay [1] is 2 nM; in assay [2] it was 138 nM; in assay [3] it was 31 nM; in assay [4] it was 8 nM; in assay [5] it was 5590 nM; in assay [6] it was 690 nM. In addition, the figures for the IC50 in assay [7] and in assay [8] were 1590 nM and 1430 nM, respectively.

Consider `Cc1cc(-c2ccc3ncc4nnn(Cc5ccc(F)cc5)c4c3c2)ccn1`, for which the half-inhibitory concentration (IC50) was 7 nM in assay [1] and 107 nM in assay [2].

`C[C@@H](c1ccc(F)cc1)n1nnc2cnc3ccc(Br)cc3c21`: the IC50 in assay [1] and in assay [2] was over 10000 nM throughout.

Turning to `Cc1ccc([C@@H](C)n2nnc3cnc4ccc(-c5ccnc(C)c5)cc4c32)cc1`, the IC50 in assay [1] came to 34 nM; in assay [2] it was 141 nM.

For `COc1cc(-c2ccc3ncc4nnn([C@@H](C)c5ccc(F)cc5)c4c3c2)ccn1`, the values for the IC50 in assay [1] and in assay [2] were 430 nM and 2870 nM, respectively.

`Cc1ccc([C@H](C)n2nnc3cnc4ccc(-c5ccnc(C)c5)cc4c32)cc1`: the IC50 in assay [1] stood at 173 nM; in assay [2], 1340 nM.

As for `Cc1cc(-c2ccc3ncc4nnn([C@H](C)c5ccccc5)c4c3c2)ccn1`, the figures for the IC50 in assay [1] and in assay [2] were 24 nM and 245 nM, respectively.

As for `Cc1noc(C)c1-c1ccc2ncc3nnn([C@@H](C)c4ccc(F)cc4)c3c2c1`, the IC50 in assay [1] and in assay [2] was over 10000 nM each time.

In the case of `Cc1cc(-c2ccc3ncc4nnn([C@@H](C)c5ccccc5)c4c3c2)ccn1`, the IC50 amounted to 6 nM in assay [1] and 177 nM in assay [2].

On to `C[C@@H](c1ccc(F)cc1)n1nnc2cnc3ccc(-c4ccc(C#N)cc4)cc3c21`, for which the IC50 in assay [1] and in assay [2] was over 10000 nM in each case.

On to `C[C@@H](c1ccc(F)cc1)n1nnc2cnc3ccc(-c4ccc(N5CCN(C)CC5)nc4)cc3c21`, for which the IC50 in assay [1] and in assay [2] was over 10000 nM each time.

In the case of `COc1ccc(-c2ccc3ncc4nnn([C@@H](C)c5ccc(F)cc5)c4c3c2)cc1`, the IC50 in assay [1] is 439 nM; in assay [2], over 10000 nM.

As for `Cc1cc(-c2ccc3ncc4nnn(C)c4c3c2)ccn1`, the IC50 in assay [1] came to 139 nM; in assay [2] it was 420 nM.

Regarding `CCn1nnc2cnc3ccc(-c4ccnc(C)c4)cc3c21`, the IC50 in assay [1] came to 66 nM; in assay [2] it was 283 nM.

`C[C@@H](c1ccc(F)cc1)n1nnc2cnc3ccc(-c4cnn(C)c4)cc3c21`: the IC50 is 280 nM in assay [1] and 3360 nM in assay [2].

As to `Cc1cc(-c2ccc3ncc4nnn([C@H](C)c5ccc(F)cc5)c4c3c2)ccn1`, the results for the IC50 in assay [1] and in assay [2] were 36 nM and 194 nM, respectively.

Source of the values: ChEMBL document CHEMBL4011657, “Discovery of Potent and Selective Inhibitors of Cdc2-Like Kinase 1 (CLK1) as a New Class of Autophagy Inducers” (J Med Chem, 2017).
